The test deals with soluble HLA-A*02:01 molecules (Homo sapiens, UniProt P04439, D140Y/D185E/D98H/E176V/E277Q/G131W/G231S/I119V/I121R/I166T/I218V/L300P/L318F/N151K/N90K/P208A/P217A/Q86G/Q94H/R138H/R169H/T345S). The test is described as follows: Binding with soluble HLA-A*02:01 molecules.

The results in this text go back to PMC4057607 (Journal of immunology (Baltimore, Md. : 1950), 2013).

For the molecule `CSCC[C@H](NC(=O)[C@@H](N)[C@@H](C)O)C(=O)N[C@@H](CC(C)C)C(=O)N[C@@H](CCC(=O)O)C(=O)N[C@@H](CC(=O)O)C(=O)N[C@@H](Cc1c[nH]cn1)C(=O)N[C@@H](CCC(=O)O)C(=O)N[C@@H](Cc1ccccc1)C(=O)N[C@H](C(=O)O)C(C)C` [gB675–683], the Kd (commonly the constant that tells how readily two partners part at equilibrium) was roughly 95 nM.
